Biological target: T1, His-hMAGL (recombinant polyhistidine tagged human MAGL protein) (Homo sapiens, UniProt Q99685)
T1 construct: made in house; host or cells: E. coli BL21(DE3)
T1 sequence (Q99685 1-303): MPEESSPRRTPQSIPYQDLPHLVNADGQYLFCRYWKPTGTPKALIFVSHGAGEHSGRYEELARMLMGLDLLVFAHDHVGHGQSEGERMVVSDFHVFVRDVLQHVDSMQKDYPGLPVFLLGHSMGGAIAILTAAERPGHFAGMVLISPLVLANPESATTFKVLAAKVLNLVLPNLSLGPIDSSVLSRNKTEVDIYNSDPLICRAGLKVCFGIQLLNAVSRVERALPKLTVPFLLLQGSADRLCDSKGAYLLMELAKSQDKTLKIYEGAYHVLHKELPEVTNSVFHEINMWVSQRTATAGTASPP
Assay: Measurement of MAGL inhibitory activity (arachidonic acid production from 2-arachidonylglycerol, RapidFire-mass spectrometry)
Type: biochemical
Settings: MAGL inhibitory rate at 10 μM test compound, 60 min preincubation with His-hMAGL, 2-arachidonylglycerol substrate, 10 min reaction at room temperature
In short: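 Recombinant His-tagged human MAGL converted 2-arachidonylglycerol to arachidonic acid. Reactions received acetonitrile with 3 μM arachidonic acid-d8 as internal standard, and product was quantified by RapidFire SPE (C4) with negative-mode SRM mass spectrometry. Percent inhibition was calculated against compound-free and enzyme-free controls.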

Row | SMILES | inhibition at 10 µM [%] | % inhibition (10 μM) (10 µM) [%]
1 | O=C1COc2ncc(C(=O)N3CCC(COc4ccccc4Cl)CC3)cc2N1 [Example 7, 7-((4-((2-chlorophenoxy)methyl)piperidin-1-yl)carbonyl)-1H-pyrido[2,3-b][1,4]oxazin-2(3H)-one] | 100 | –
2 | CCc1ncccc1-c1cc(Cl)ccc1OCC1CN(C(=O)c2cc3c(cc2F)OCC(=O)N3)C1 [Example 199, 6-((3-((4-chloro-2-(2-ethylpyridin-3-yl)phenoxy)methyl)azetidin-1-yl)carbonyl)-7-fluoro-2H-1,4-benzoxazin-3(4H)-one] | 103 | –
3 | N#CC1(COc2ccc(F)cc2Cl)CCN(C(=O)c2cc3c(cc2F)OCC(=O)N3)CC1 [Example 81, 4-((2-chloro-4-fluorophenoxy)methyl)-1-((7-fluoro-3-oxo-3,4-dihydro-2H-1,4-benzoxazin-6-yl)carbonyl)piperidine-4-carbonitrile] | 99 | –
4 | O=C1COc2cc(F)c(C(=O)N3CC(COc4ccc(-c5ccc(Cl)cn5)cc4F)C3)cc2N1 [Example 229, 6-((3-((4-(5-chloropyridin-2-yl)-2-fluorophenoxy)methyl)azetidin-1-yl)carbonyl)-7-fluoro-2H-1,4-benzoxazin-3(4H)-one] | 88 | –
5 | N#Cc1cc(C(F)(F)F)ccc1OCC1CCN(C(=O)c2ccc3c(c2)NC(=O)C3)CC1 [Example 69, 2-((1-((2-oxo-2,3-dihydro-1H-indol-6-yl)carbonyl)piperidin-4-yl)methoxy)-5-(trifluoromethyl)benzonitrile] | 99 | –
6 | O=C1COc2ccc(C(=O)N3CCC(COc4cc(F)ccc4Cl)CC3)cc2N1 [Example 31, 6-((4-((2-chloro-5-fluorophenoxy)methyl)piperidin-1-yl)carbonyl)-2H-1,4-benzoxazin-3(4H)-one] | 97 | –
7 | O=C1COc2ccc(C(=O)N3CC(COc4ccc(F)cc4Cl)C3)cc2N1 [Example 78, 6-((3-((2-chloro-4-fluorophenoxy)methyl)azetidin-1-yl)carbonyl)-2H-1,4-benzoxazin-3(4H)-one] | 100 | –
8 | Cn1ccc(-c2cc(Cl)ccc2OCC2CN(C(=O)c3cc4c(cc3F)OCC(=O)N4)C2)n1 [Example 216, 6-((3-((4-chloro-2-(1-methyl-1H-pyrazol-3-yl)phenoxy)methyl)azetidin-1-yl)carbonyl)-7-fluoro-2H-1,4-benzoxazin-3(4H)-one] | 97 | –
9 | N#Cc1cc(Cl)ccc1OCC1CCN(C(=O)c2cc3c(cc2F)OCC(=O)N3)CC1 [Example 72, 5-chloro-2-((1-((7-fluoro-3-oxo-3,4-dihydro-2H-1,4-benzoxazin-6-yl)carbonyl)piperidin-4-yl)methoxy)benzonitrile] | 100 | –
10 | O=C1COc2cc(F)c(C(=O)N3CC(COc4cc(Cl)cc(Cl)c4)C3)cc2N1 [Example 127, 6-((3-((3,5-dichlorophenoxy)methyl)azetidin-1-yl)carbonyl)-7-fluoro-2H-1,4-benzoxazin-3(4H)-one] | 99 | –
11 | O=C1COc2ncc(C(=O)N3CCC(COc4cccc(Cl)c4Cl)CC3)cc2N1 [Example 25, 7-((4-((2,3-dichlorophenoxy)methyl)piperidin-1-yl)carbonyl)-1H-pyrido[2,3-b][1,4]oxazin-2(3H)-one] | 100 | –
12 | Cc1cc(-c2cc(Cl)ccc2OCC2CN(C(=O)c3cc4c(cc3F)OCC(=O)N4)C2)n(C)n1 [Example 223, 6-((3-((4-chloro-2-(1,3-dimethyl-1H-pyrazol-5-yl)phenoxy)methyl)azetidin-1-yl)carbonyl)-7-fluoro-2H-1,4-benzoxazin-3(4H)-one] | 102 | –
13 | CN1CC=C(c2cc(Cl)ccc2OCC2CN(C(=O)c3cc4c(cc3F)OCC(=O)N4)C2)CC1 [Example 212, 6-((3-((4-chloro-2-(1-methyl-1,2,3,6-tetrahydropyridin-4-yl)phenoxy)methyl)azetidin-1-yl)carbonyl)-7-fluoro-2H-1,4-benzoxazin-3(4H)-one] | 94 | –
14 | O=C1COc2cc(F)c(C(=O)N3CC(COc4ccc(-c5cccnc5Cl)cc4F)C3)cc2N1 [Example 232, 6-((3-((4-(2-chloropyridin-3-yl)-2-fluorophenoxy)methyl)azetidin-1-yl)carbonyl)-7-fluoro-2H-1,4-benzoxazin-3(4H)-one] | 99 | –
15 | O=C1COc2cc(F)c(C(=O)N3CC(COc4ccc(Cl)cc4-c4cccnc4)C3)cc2N1 [Example 192, 6-((3-((4-chloro-2-(pyridin-3-yl)phenoxy)methyl)azetidin-1-yl)carbonyl)-7-fluoro-2H-1,4-benzoxazin-3(4H)-one] | 99 | –
16 | O=C1COc2cc(F)c(C(=O)N3CC(COc4ccc5ccccc5c4)C3)cc2N1 [Example 169, 7-fluoro-6-((3-((2-naphthyloxy)methyl)azetidin-1-yl)carbonyl)-2H-1,4-benzoxazin-3(4H)-one] | 97 | –
17 | O=C1COc2ncc(C(=O)N3CCC(COc4cc(F)ccc4Cl)CC3)cc2N1 [Example 21, 7-((4-((2-chloro-5-fluorophenoxy)methyl)piperidin-1-yl)carbonyl)-1H-pyrido[2,3-b][1,4]oxazin-2(3H)-one] | 99 | –

Other lines, results leading:

Row | inhibition at 10 µM [%] | % inhibition (10 μM) (10 µM) [%] | SMILES
18 | 101 | – | Cc1c(-c2ccc(OCC3CN(C(=O)c4cc5c(cc4F)OCC(=O)N5)C3)c(F)c2)cnn1C [Example 250, 6-((3-((4-(1,5-dimethyl-1H-pyrazol-4-yl)-2-fluorophenoxy)methyl)azetidin-1-yl)carbonyl)-7-fluoro-2H-1,4-benzoxazin-3(4H)-one]
19 | 101 | – | O=C1COc2cc(F)c(C(=O)N3CC(OCc4ccc(C(F)(F)F)cc4F)C3)cc2N1 [Example 345, 7-fluoro-6-((3-((2-fluoro-4-(trifluoromethyl)benzyl)oxy)azetidin-1-yl)carbonyl)-2H-1,4-benzoxazin-3(4H)-one]
20 | 101 | – | O=C1COc2cc(F)c(C(=O)N3CC(OCc4ccc(-n5cccn5)cc4)C3)cc2N1 [Example 338, 7-fluoro-6-((3-((4-(1H-pyrazol-1-yl)benzyl)oxy)azetidin-1-yl)carbonyl)-2H-1,4-benzoxazin-3(4H)-one]
21 | 99 | – | O=C1COc2cc(F)c(C(=O)N3CC(COc4ccc(-c5ccc(F)nc5)cc4F)C3)cc2N1 [Example 238, 7-fluoro-6-((3-((2-fluoro-4-(6-fluoropyridin-3-yl)phenoxy)methyl)azetidin-1-yl)carbonyl)-2H-1,4-benzoxazin-3(4H)-one]
22 | 102 | – | COc1ccc(COC2CN(C(=O)c3cc4c(cc3F)OCC(=O)N4)C2)c(Cl)c1 [Example 347, 6-((3-((2-chloro-4-methoxybenzyl)oxy)azetidin-1-yl)carbonyl)-7-fluoro-2H-1,4-benzoxazin-3(4H)-one]
23 | 99 | – | Cn1ccc(-c2ccc(OCC3CN(C(=O)c4cc5c(cc4F)OCC(=O)N5)C3)c(F)c2)n1 [Example 252, 7-fluoro-6-((3-((2-fluoro-4-(1-methyl-1H-pyrazol-3-yl)phenoxy)methyl)azetidin-1-yl)carbonyl)-2H-1,4-benzoxazin-3(4H)-one]
24 | 98 | – | O=C1COc2cc(F)c(C(=O)N3CC(COc4ccc(-c5cnn(C6CC6)c5)cc4F)C3)cc2N1 [Example 248, 6-((3-((4-(1-cyclopropyl-1H-pyrazol-4-yl)-2-fluorophenoxy)methyl)azetidin-1-yl)carbonyl)-7-fluoro-2H-1,4-benzoxazin-3(4H)-one]
25 | 102 | – | CC(OC1CN(C(=O)c2cc3c(cc2F)OCC(=O)N3)C1)c1ccc(F)cc1 (centres unmarked) [Example 354, 7-fluoro-6-((3-(1-(4-fluorophenyl)ethoxy)azetidin-1-yl)carbonyl)-2H-1,4-benzoxazin-3(4H)-one]
26 | 100 | – | O=C1COc2cc(F)c(C(=O)N3CC(COCc4ccc5scnc5c4)C3)cc2N1 [Example 272, 6-((3-((1,3-benzothiazol-5-ylmethoxy)methyl)azetidin-1-yl)carbonyl)-7-fluoro-2H-1,4-benzoxazin-3(4H)-one]
27 | 102 | – | N#Cc1ccc(COC2CN(C(=O)c3cc4c(cc3F)OCC(=O)N4)C2)cc1 [Example 335, 4-(((1-((7-fluoro-3-oxo-3,4-dihydro-2H-1,4-benzoxazin-6-yl)carbonyl)azetidin-3-yl)oxy)methyl) benzonitrile]
28 | 101 | – | Cc1ccc(OCC2CN(C(=O)c3cc4c(cc3F)OCC(=O)N4)C2)cc1F [Example 269, 7-fluoro-6-((3-((3-fluoro-4-methylphenoxy)methyl)azetidin-1-yl)carbonyl)-2H-1,4-benzoxazin-3(4H)-one]
29 | – | 101 | CC(Oc1cc(F)ccc1F)C1CN(C(=O)c2cc3c(cc2F)OCC(=O)N3)C1 (centres unmarked) [Example 319, 6-((3-(1-(2,5-difluorophenoxy)ethyl)azetidin-1-yl)carbonyl)-7-fluoro-2H-1,4-benzoxazin-3(4H)-one]
30 | 102 | – | CC(Oc1cccc(F)c1F)C1CN(C(=O)c2cc3c(cc2F)OCC(=O)N3)C1 (centres unmarked) [Example 302, 6-((3-(1-(2,3-difluorophenoxy)ethyl)azetidin-1-yl)carbonyl)-7-fluoro-2H-1,4-benzoxazin-3(4H)-one]
31 | 96 | – | Cn1cc(-c2ccc(OCC3CN(C(=O)c4cc5c(cc4F)OCC(=O)N5)C3)c(F)c2)cn1 [Example 246, 7-fluoro-6-((3-((2-fluoro-4-(1-methyl-1H-pyrazol-4-yl)phenoxy)methyl)azetidin-1-yl)carbonyl)-2H-1,4-benzoxazin-3(4H)-one]
32 | 100 | – | O=C1COc2cc(F)c(C(=O)N3CC(OCc4cccc(OC(F)F)c4)C3)cc2N1 [Example 340]

Reference: patent publication US10106556B2, “Heterocyclic compound” (TAKEDA PHARMACEUTICAL COMPANY LIMITED, priority 2015, dated 2018)
